{
  "source": "patent US20230276804A1",
  "about": "“A PESTICIDALLY ACTIVE MIXTURE COMPRISING PYRAZOLOPYRIDINE ANTHRANILAMIDE COMPOUND, OXIDES OR SALTS THEREOF” (priority 2020, published 2023)",
  "type_in_all_cases": "in vivo",
  "key": {"Plutella xylostella [1]": {"test_system": "Plutella xylostella", "test": "Leaf dip method (cabbage leaves) with Bacillus thuringiensis against Plutella xylostella (Example F)", "details": "single, 0.1 ppm, 72 h", "method": "The leaf dip method was used, wherein the required quantity of the compounds were weighed and dissolved in a test solution prepared in tubes. The tubes were put on a vortex at 2000 rpm for 90 min for proper mixing and then, for the single compounds, diluted with a 0.01% Triton-X solution, for the combinations, diluted with a 0.01% Triton-X solution containing formulated Bt, to get the desired test concentration. Cabbage leaves were dipped in the solution for 10 seconds, shade dried for 20 min and then transferred to single cells of bioassay trays. A single second instar larva was released into each cell and the tray was covered with a lid. The bio-assay trays were kept under laboratory conditions at a temperature of 25° C. and relative humidity of 70%. Observations on dead, moribund and live larvae were recorded 72 h after the release. Percent mortality was calculated by combining dead and moribund larvae and comparing the results to the one of the untreated control. The results have been described for compound of formula (I-III) in Table F."}, "Helicoverpa armigera": {"test_system": "Helicoverpa armigera", "test": "Diet incorporation method against Helicoverpa armigera (Example A)", "details": "single compound, 0.2 ppm, 96 h", "method": "The diet incorporation method was used, in which semi-synthetic diet was incorporated into the test solutions consisting either of the single compounds or respective compound combinations, when the temperature was approximately 50° C. in the bio-assay containers, then stirred thoroughly for proper mixing and allowed to cool for 30 min. The solidified diet was cut into equal pieces, and then each piece was transferred into one cell of a bio-assay tray. A single starved third instar larva was released into each of these cells of the bio-assay trays and the tray was covered with a lid. The bio-assay trays were kept under laboratory conditions at a temperature of 25° C. and relative humidity of 70%. Observations on dead, moribund and live larvae were recorded 96 h after the release of the larvae. Percent mortality was calculated by combining dead and moribund larvae and comparing the result to the one of the untreated control. The results are shown for the compound of formula (I-III) in Table A."}, "Pyricularia oryzae": {"test_system": "Pyricularia oryzae", "details": "single compound, 100 ppm, preventive, rice"}, "Septoria nodorum": {"test_system": "Septoria nodorum", "test": "Preventive glasshouse test against Parastagonospora nodorum/Septoria nodorum/Stagnospora nodorum in wheat (Example J)", "details": "single compound", "method": "(§1) The single compounds or respective compound combinations were dissolved in 2% dimethyl sulfoxide/acetone and then mixed with water containing emulsifier to a calibrated spray volume of 50 mL. The test solutions were poured into spray bottles for further applications.\nTo test the preventive activity of compounds, healthy young wheat plants, raised in the greenhouse, were sprayed with the active compound preparation at the stated application rates inside the spray cabinets using hollow cone nozzles. One day after treatment, the plants were inoculated with a spore suspension containing 2.8×10^6 Stagnospora nodorum inoculum.\nThe inoculated plants were then kept in a greenhouse chamber at 22-25° C. temperature and 90-100% relative humidity for disease expression.\nA visual assessment of the performance of the single compounds or compound combinations was carried out by rating the disease severity (0-100% scale) on treated plants 3, 7, 10 and 15 days after application. Efficacy (% control) of the single compounds and mixtures was calculated by comparing the disease rating in the treatment with the one of the untreated control. The compounds were also assessed for their plant compatibility by recording symptoms like necrosis, chlorosis and stunting. The results have been described for the compound of formula (I-III) in Table J."}, "Plutella xylostella [2]": {"test_system": "Plutella xylostella", "test": "Leaf dip method (cabbage leaves) against Plutella xylostella (Example C)", "details": "single compound, 72 h", "method": "The leaf dip method was used, wherein the required quantity of the compound or respective compound combinations were weighed and dissolved in a test solution prepared in tubes. The tubes were put on a vortex at 2000 rpm for 90 min for proper mixing and then the test solutions were diluted with 0.01% Triton-X to the desired test concentration. Cabbage leaves were dipped into the solution for 10 seconds, shade dried for 20 min and then transferred to single cells of bioassay trays. A single second instar larva was released into each cell and the tray was covered with a lid. The bio-assay trays were kept under laboratory conditions at a temperature of 25° C. and relative humidity of 70%. Observations on dead, moribund and live larvae were recorded 72 h after the release. Percent mortality was calculated by combining dead and moribund larvae and comparing the result with the one of the untreated control. The results are shown for compound of formula (I-III) in Table C."}, "Erysiphe cichoracearum": {"test_system": "Erysiphe cichoracearum", "test": "Preventive glasshouse test against Erysiphe cichoracearum in cucumber (Example K)", "details": "single compound", "method": "The single compounds or the respective compound combinations were dissolved in 2% dimethyl sulfoxide/acetone and then mixed with water containing emulsifier to a calibrated spray volume of 50 mL. The test solutions were poured into spray bottles for further applications.\nTo test the preventive activity of compounds, healthy young cucumber plants, raised in the greenhouse, were sprayed with the active compound preparation at the stated application rates inside the spray cabinets using hollow cone nozzles. One day after treatment, the plants were inoculated with a conidial suspension containing 2×10^5 Erysiphe cichoracearum inoculum. The inoculated plants were then kept in a greenhouse chamber at a temperature of 22-24° C. and 50-60% relative humidity for disease expression.\nA visual assessment of the performance of the compounds and the respective compound combinations was carried out by rating the disease severity (0-100% scale) on treated plants 3, 7, 10 and 15 days after application. Efficacy (% control) of the single compounds or compound combinations was calculated by comparing the disease rating in the treatment with the one of the untreated control. The compounds were also assessed for their plant compatibility by recording symptoms like necrosis, chlorosis and stunting. The results have been described for the compound of formula (I-III) in Table K."}, "Alternaria solani": {"test_system": "Alternaria solani", "test": "Preventive glasshouse test against Alternaria solani in tomato (Example G)", "details": "single compound", "method": "as §1\nTo test the preventive activity, healthy young tomato plants, raised in the greenhouse, were sprayed with the active compound preparation at the stated application rates inside the spray cabinets using hollow cone nozzles. One day after treatment, the plants were inoculated with a spore suspension containing 0.24×10^6 Alternaria solani inoculum and 2% Malt. The inoculated plants were then kept in a greenhouse chamber at a temperature of 22-24° C. and 90-95% relative humidity for disease expression.\nA visual assessment of the performance of the single compounds or compound combinations was carried out by rating the disease severity (0-100% scale) on treated plants 3, 7, 10 and 15 days after application. Efficacy (% control) of the single compounds and mixtures was calculated by comparing the disease rating in the treatment with the one of the untreated control. The compounds were also assessed for their plant compatibility by recording symptoms like necrosis, chlorosis and stunting. The results have been described for the compound of formula (I-III) in Table G."}},
  "note": "Where “and” joins values, the source holds several entries; their conditions need not be identical. Identical values can stand only once.",
  "data": [
    {"substance": "6-(3-bromo-1-(3-chloropyridin-2-yl)-1H-pyrazole-5-carboxamido)-N-isopropyl-5-methylpyrazolo[1,5-a]pyridine-7-carboxamide [Compound (I-III)]", "values": [
      {"measurement": "Observed Efficacy (%)", "setting": "Plutella xylostella [1]", "value": 12.5, "unit": "%"},
      {"measurement": "Observed Efficacy (%)", "setting": "Helicoverpa armigera", "value": 12.5, "unit": "%"},
      {"measurement": "Observed Efficacy (%)", "setting": "Pyricularia oryzae", "value": 15, "unit": "%"},
      {"measurement": "Observed Efficacy (%)", "setting": "Septoria nodorum; 100 ppm", "value": 24, "unit": "%"},
      {"measurement": "Observed Efficacy (%)", "setting": "Septoria nodorum; 500 ppm", "value": 32, "unit": "%"},
      {"measurement": "Observed Efficacy (%)", "setting": "Plutella xylostella [2]; 0.05 ppm", "value": 12.5, "unit": "%"},
      {"measurement": "Observed Efficacy (%)", "setting": "Plutella xylostella [2]; 0.1 ppm", "value": 12.5, "unit": "%"},
      {"measurement": "Observed Efficacy (%)", "setting": "Plutella xylostella [2]; 0.5 ppm", "value": 25, "unit": "%"},
      {"measurement": "Observed Efficacy (%)", "setting": "Erysiphe cichoracearum; Conc. 100 ppm", "value": 17, "unit": "%"},
      {"measurement": "Observed Efficacy (%)", "setting": "Erysiphe cichoracearum; Conc. 500 ppm", "value": "17% and 19% and 28%"},
      {"measurement": "Observed Efficacy (%)", "setting": "Alternaria solani; 100 ppm", "value": 30, "unit": "%"},
      {"measurement": "Observed Efficacy (%)", "setting": "Alternaria solani; 500 ppm", "value": 32, "unit": "%"}
    ]}
  ]
}
